From patent publication US8946478B2, “Benzamide derivative with anticancer activity and preparation method and use thereof” (Zhejiang Hisun Pharmaceutical Co., Ltd., priority 2010, dated 2015)

What was measured:
Experiment in all cases: In vitro SRB tumor cell growth inhibition (GI50)
Type in all cases: cell-based
[1] = system: human hepatoma HepG 2; conditions: HepG2, HepG 2 cells, 48 h
[2] = system: human ovarian cancer cell strain HO8910; conditions: HO-8910, HO8910 cells, 48 h
[3] = system: human lung cancer cell strain A549; conditions: A549 cells, 48 h
How it was run: (§1)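 A549 and PANC-1 seeded at 10000 cells/well, OVCAR-5 and NCI460 at 5000 cells/well in DMEM/10% FBS, pre-incubated 24 h at 37 °C. Compounds added for 48 h, triplicate; cells TCA-fixed, SRB-stained, absorbance read at 515 nm with 690 nm blank. GI50 from dose-response curve, time-zero wells included.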

[4] = system: human colon cancer cell strain HCT-116; conditions: Homo sapiens, HCT-116, 48 h, HCT-116 cells
[5] = system: human prostate cancer BXPC-3; conditions: BXPC-3 cells, 48 h
[6] = system: human ovarian cancer cell strain OVCAR-5; conditions: OVCAR-5 cells, 48 h
How it was run: as §1

[7] = system: human ovarian cancer cell strain OVCAR-8; conditions: Homo sapiens, OVCAR-8, 48 h, OVCAR-8 cells
[8] = system: human leukemia K562; conditions: Homo sapiens, K562, 48 h, K562 cells
[9] = system: human colon cancer cell strain Colo205; conditions: Colo 205 cells, 48 h
[10] = system: human ovarian cancer cell strain SKOV-3; conditions: SK-OV-3, SKOV-3 cells, 48 h
[11] = system: human uterine cancer Hela; conditions: Homo sapiens, HeLa, 48 h, Hela cells
[12] = system: human breast cancer cell strain MCF-7; conditions: Homo sapiens, MCF7, 48 h, MCF-7 cells
[13] = system: human lung cancer cell strain NCI-460; conditions: Homo sapiens, NCI-460, 48 h, NCI-460 cells
How it was run: as §1

[14] = system: human leukemia HL-60; conditions: Homo sapiens, HL-60, 48 h, HL-60 cells
[15] = system: human pancreatic cancer PANC-1; conditions: Homo sapiens, PANC-1, 48 h, PANC-1 cells
How it was run: as §1

[16] = system: human breast cancer cell strain MDA-MB435; conditions: Homo sapiens, MDA-MB-435, 48 h, MDA-MB435 cells
[17] = system: human prostate cancer DU145; conditions: Homo sapiens, DU-145, 48 h, DU145 cells
[18] = system: human lung cancer cell strain 95D; conditions: Homo sapiens, 95-D, 48 h, 95D cells

Row | SMILES | GI50 [1] [µM] | GI50 [2] [µM] | GI50 [3] [µM] | GI50 [4] [µM] | GI50 [5] [µM] | GI50 [6] [µM] | GI50 [7] [µM] | GI50 [8] [µM] | GI50 [9] [µM] | GI50 [10] [µM] | GI50 [11] [µM] | GI50 [12] [µM] | GI50 [13] [µM] | GI50 [14] [µM] | GI50 [15] [µM] | GI50 [16] [µM] | GI50 [17] [µM] | GI50 [18] [µM]
1 | C#Cc1ccc(C(N)=O)cc1[N+](=O)[O-] [Compound I-1, 4-ethynyl-3-nitrobenzamide] | 8.73 | 1.47 | 4.56 | 1.9 | 4.68 | 4.29 | 11.7 | 3.02 | 4.84 | 3.17 | 5.28 | 2.47 | 10.9 | 2.11 | 7.41 | 2.05 | 4.78 | 1.88
2 | NC(=O)c1ccc(I)c([N+](=O)[O-])c1 [BSI-201, 4-iodo-3-nitrobenzamide, reference compound] | > 100 | 72.6 | 105 | 64.7 | 105 | 61.1 | 103 | 44.6 | 76 | 38.5 | 64.7 | 40.1 | > 100 | 74.1 | 25.5 | 64.4 | 86.6 | 53.8
